Consider 13 compounds from US11554171B2, “Compounds and methods for the targeted degradation of bromodomain-containing proteins” (Arvinas Operations, Inc., priority 2015, dated 2023).

Molecules are shown by their SMILES.

In the assay the test system is c-myc in 22RV-1 cells. Put plainly: Human c-myc ELISA assay. Conditions: Homo sapiens; for Emax: 22Rv1, 18 h, read-out: Degradation of BRD4: Maximum inhibition (%) c-Myc ELISA in 22RV1 cells; for DC50: 22Rv1, read-out: Degradation of BRD4: DC50 (uM) c-Myc ELISA in 22RV1 cells. Format: cell-based. Put shortly:
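22RV-1 cells treated 18 h with 8-point 1:3 compound dilutions (final top 300 nM or 1 μM, 0.1% DMSO). Cells lysed in RIPA buffer with protease/phosphatase inhibitors, and c-myc protein in cleared lysate quantified by ELISA against a standard curve. DC50 reported for c-myc suppression.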
For orientation: In an ELISA, binding on a coated surface is turned into a signal by an enzyme label.

By DC50 is commonly meant the midpoint of the concentration-degradation curve. As for `Cc1ncsc1-c1ccc([C@H](C)NC(=O)[C@@H]2C[C@@H](O)CN2C(=O)[C@@H](NC(=O)c2cc3ccc(OCCNC(=O)C[C@@H]4N=C(c5ccc(Cl)cc5)c5c(sc(C)c5C)-n5c(C)nnc54)cc3o2)C(C)(C)C)cc1` [Example 210, (2S,4R)-1-[(2S)-2-{[6-(2-{2-[(9S)-7-(4-chlorophenyl)-4,5,13-trimethyl-3-thia-1,8,11,12-tetraazatricyclo[8.3.0.0^2,^6]trideca-2(6),4,7,10,12-pentaen-9-yl]acetamido}ethoxy)-1-benzofuran-2-yl]formamido}-3,3-dimethylbutanoyl]-4-hydroxy-N-[(1S)-1-[4-(4-methyl-1,3-thiazol-5-yl)phenyl]ethyl]pyrrolidine-2-carboxamide], the Emax stood at 100% and the DC50 was less than 0.01 µM.

As to `Cc1ncsc1-c1ccc(CNC(=O)[C@@H]2C[C@@H](O)CN2C(=O)[C@@H](NC(=O)COCCOc2cc(-c3ccc([C@@H](C)NC(=O)C[C@@H]4N=C(c5ccc(Cl)cc5)c5c(sc(C)c5C)-n5c(C)nnc54)cc3)ccn2)C(C)(C)C)cc1` [Example 36, (2S,4R)-1-[(2S)-2-(2-{2-[(4-{4-[(1R)-1-{2-[(9S)-7-(4-chlorophenyl)-4,5,13-trimethyl-3-thia-1,8,11,12-tetraazatricyclo[8.3.0.0^2,^6]trideca-2(6),4,7,10,12-pentaen-9-yl]acetamido}ethyl]phenyl}pyridin-2-yl)oxy]ethoxy}acetamido)-3,3-dimethylbutanoyl]-4-hydroxy-N-{[4-(4-methyl-1,3-thiazol-5-yl)phenyl]methyl}pyrrolidine-2-carboxamide], the Emax turned out to be 97% and the DC50 was 0.01 to 0.1 µM.

With `Cc1ncsc1-c1ccc([C@H](C)NC(=O)[C@@H]2C[C@@H](O)CN2C(=O)[C@@H](NC(=O)Cc2ccc(-c3cn(CCNC(=O)C[C@@H]4N=C(c5ccc(Cl)cc5)c5c(sc(C)c5C)-n5c(C)nnc54)cn3)cc2)C(C)(C)C)cc1` [Example 337], the Emax came to 96.4% and the DC50 is less than 0.01 µM.

Take `Cc1ncsc1-c1ccc(CNC(=O)[C@@H]2C[C@@H](O)CN2C(=O)[C@H](C(C)C)n2cc(-c3ccnc(O[C@H]4C[C@H](NC(=O)C[C@@H]5N=C(c6ccc(Cl)cc6)c6c(sc(C)c6C)-n6c(C)nnc65)C4)c3)cn2)cc1` [Example 226]: the Emax was 99% and the 50% degradation concentration (DC50) lay in the range of 0.01 to 0.1 µM.

For the compound `Cc1ncsc1-c1ccc([C@H](C)NC(=O)[C@@H]2C[C@@H](O)CN2C(=O)[C@@H](NC(=O)Cc2cccc(C(=O)N3CCN(C(=O)C[C@@H]4N=C(c5ccc(Cl)cc5)c5c(sc(C)c5C)-n5c(C)nnc54)CC3)c2)C(C)(C)C)cc1` [Example 326], the Emax turned out to be 92% and the DC50 lay within 0.01 to 0.1 µM.

Turning to `Cc1ncsc1-c1ccc(CNC(=O)[C@@H]2C[C@@H](O)CN2C(=O)[C@@H](c2cnn(CCCOCCNC(=O)C[C@@H]3N=C(c4ccc(Cl)cc4)c4c(sc(C)c4C)-n4c(C)nnc43)c2)C(C)C)cc1` [Example 144], the Emax stood at 73% and the DC50 is 0.1 to 1 µM.

With `Cc1ncsc1-c1ccc([C@H](C)NC(=O)[C@@H]2C[C@@H](O)CN2C(=O)[C@@H](NC(=O)CN2CCC(N3CCN(C(=O)C[C@@H]4N=C(c5ccc(Cl)cc5)c5c(sc(C)c5C)-n5c(C)nnc54)CC3)CC2)C(C)(C)C)cc1` [Example 335], the Emax stood at 97% and the DC50 was less than 0.01 µM.

Consider `Cc1ncsc1-c1ccc([C@H](C)NC(=O)[C@@H]2C[C@@H](O)CN2C(=O)[C@@H](NC(=O)COc2ccc(OCCNC(=O)C[C@@H]3N=C(c4ccc(Cl)cc4)c4c(sc(C)c4C)-n4c(C)nnc43)nc2)C(C)(C)C)cc1` [Example 128, (2S,4R)-1-[(2S)-2-(2-{[6-(2-{2-[(9S)-7-(4-chlorophenyl)-4,5,13-trimethyl-3-thia-1,8,11,12-tetraazatricyclo[8.3.0.0^2,^6]trideca-2(6),4,7,10,12-pentaen-9-yl]acetamido}ethoxy)pyridin-3-yl]oxy}acetamido)-3,3-dimethylbutanoyl]-4-hydroxy-N-[(1S)-1-[4-(4-methyl-1,3-thiazol-5-yl)phenyl]ethyl]pyrrolidine-2-carboxamide], for which the Emax stood at 100% and the DC50 is less than 0.01 µM.

Turning to `Cc1sc2c(c1C)C(c1ccc(Cl)cc1)=N[C@@H](CC(=O)N[C@H]1C[C@@H](Oc3cc(-c4cnn([C@H](C(=O)N5C[C@H](O)C[C@H]5C(=O)N[C@@H](C)c5ccc(-n6ccnc6C)cc5)C(C)C)c4)ccn3)C1)c1nnc(C)n1-2` [Example 289], the Emax was 93.8% and the DC50 is 0.1 to 1 µM.

On to `Cc1ncsc1-c1ccc([C@H](C)NC(=O)[C@@H]2C[C@@H](O)CN2C(=O)[C@@H](NC(=O)c2cc3ccc(O[C@H]4C[C@H](NC(=O)C[C@@H]5N=C(c6ccc(Cl)cc6)c6c(sc(C)c6C)-n6c(C)nnc65)C4)cc3o2)C(C)(C)C)cc1` [Example 229], for which the Emax is 100% and the DC50 is less than 0.01 µM.

Turning to `Cc1ncsc1-c1ccc([C@H](C)NC(=O)[C@@H]2C[C@@H](O)CN2C(=O)[C@@H](NC(=O)COc2ccnc(N3CCN(C(=O)C[C@@H]4N=C(c5ccc(Cl)cc5)c5c(sc(C)c5C)-n5c(C)nnc54)CC3)c2)C(C)(C)C)cc1` [Example 327, (2S,4R)-1-[(2S)-2-(2-{[2-(4-{2-[(9S)-7-(4-chlorophenyl)-4,5,13-trimethyl-3-thia-1,8,11,12-tetraazatricyclo[8.3.0.0^2,^6]trideca-2(6),4,7,10,12-pentaen-9-yl]acetyl}piperazin-1-yl)pyridin-4-yl]oxy}acetamido)-3,3-dimethylbutanoyl]-4-hydroxy-N-[(1S)-1-[4-(4-methyl-1,3-thiazol-5-yl)phenyl]ethyl]pyrrolidine-2-carboxamide], the Emax worked out at 96% and the DC50 was less than 0.01 µM.

With `Cc1ncsc1-c1ccc(CNC(=O)[C@@H]2C[C@@H](O)CN2C(=O)[C@@H](NC(=O)COCCn2cc(-c3ccc([C@H](C)NC(=O)C[C@@H]4N=C(c5ccc(Cl)cc5)c5c(sc(C)c5C)-n5c(C)nnc54)cc3)cn2)C(C)(C)C)cc1` [Example 86], the Emax turned out to be 80% and the DC50 lay within 0.1 to 1 µM.

Consider `Cc1ncsc1-c1ccc(CNC(=O)[C@@H]2C[C@@H](O)CN2C(=O)[C@@H](NC(=O)COCCCOCCCCCNC(=O)C[C@@H]2N=C(c3ccc(Cl)cc3)c3c(sc(C)c3C)-n3c(C)nnc32)C(C)(C)C)cc1` [Example 50, (2S,4R)-1-[(2S)-2-(2-{3-[(5-{2-[(9S)-7-(4-chlorophenyl)-4,5,13-trimethyl-3-thia-1,8,11,12-tetraazatricyclo[8.3.0.0^2,^6]trideca-2(6),4,7, 10,12-pentaen-9-yl]acetamido}pentyl)oxy]propoxy}acetamido)-3,3-dimethylbutanoyl]-4-hydroxy-N-{[4-(4-methyl-1,3-thiazol-5-yl)phenyl]methyl}pyrrolidine-2-carboxamide], for which the Emax came to 98% and the DC50 is less than 0.01 µM.
